# Source: patent publication US11739100B2, “2,3-dihydro-1h-imidazo{1,2-a}pyrimidin-5-one and this 1,2,3,4-tetrahydropyrimido{1,2-a}pyrimidin-6-one derivatives comprising a substituted morpholine, preparation thereof and pharmaceutical use thereof” (SANOFI, priority 2012, dated 2023)
# pIC50: −log10 of the molar value.
# Molecular target: T1, recombinant Vps34 (Homo sapiens, UniProt Q8NEB9)
# T1 construct: purchased Invitrogen PV5126
# Assay: Phosphorylation of phosphatidylinositol (PI) by Vps34 in vitro, ADP detected by TR-FRET (HTRF Transcreener ADP)
# Format: biochemical
# Conditions: 10 μM ATP, 55 μg/ml PI, approximately 3 nM Vps34, 1 hour at ambient temperature; absolute IC50, mean of two independent experiments; read-out: IC50 activity range
# T1 sequence (Q8NEB9 whole entry): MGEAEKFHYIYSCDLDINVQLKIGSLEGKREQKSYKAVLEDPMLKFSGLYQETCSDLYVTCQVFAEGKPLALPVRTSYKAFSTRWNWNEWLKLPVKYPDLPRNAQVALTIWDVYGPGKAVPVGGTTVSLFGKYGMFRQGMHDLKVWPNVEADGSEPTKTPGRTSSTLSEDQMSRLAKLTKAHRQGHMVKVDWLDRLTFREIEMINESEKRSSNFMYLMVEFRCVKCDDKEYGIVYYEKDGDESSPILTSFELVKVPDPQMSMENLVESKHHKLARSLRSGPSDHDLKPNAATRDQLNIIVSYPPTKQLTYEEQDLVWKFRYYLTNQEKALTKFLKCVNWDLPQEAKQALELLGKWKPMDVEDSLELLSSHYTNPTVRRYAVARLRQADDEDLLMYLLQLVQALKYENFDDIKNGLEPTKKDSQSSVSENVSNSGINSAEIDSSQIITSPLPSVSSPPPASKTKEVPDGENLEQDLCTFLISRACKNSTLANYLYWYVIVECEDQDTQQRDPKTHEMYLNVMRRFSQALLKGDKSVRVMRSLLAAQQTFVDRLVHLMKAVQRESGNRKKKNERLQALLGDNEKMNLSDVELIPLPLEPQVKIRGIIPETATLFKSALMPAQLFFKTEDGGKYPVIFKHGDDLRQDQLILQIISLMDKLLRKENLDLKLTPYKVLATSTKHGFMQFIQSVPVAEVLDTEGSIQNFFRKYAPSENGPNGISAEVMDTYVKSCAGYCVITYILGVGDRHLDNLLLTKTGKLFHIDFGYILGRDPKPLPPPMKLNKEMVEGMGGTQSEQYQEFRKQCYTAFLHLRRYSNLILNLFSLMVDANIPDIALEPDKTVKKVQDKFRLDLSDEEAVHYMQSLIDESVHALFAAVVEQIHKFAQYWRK
structure (smiles),measurement,value
"Cc1nocc1CN1c2nc(N3CCOC[C@H]3C)c(F)c(=O)n2CC[C@H]1C(F)(F)F [Example 62, (S)-3-Fluoro-9-(3-methylisoxazol-4-yl-methyl)-2-((R)-3-methylmorpholin-4-yl)-8-trifluoromethyl-6,7,8,9-tetrahydro-pyrimido[1,2-a]-pyrimidin-4-one]",pIC50,> 8.00
"C[C@H]1COCCN1c1cc(=O)n2c(n1)N(Cc1ccc(Cl)s1)[C@H](C(F)(F)F)CC2 [Example 178, (S)-9-(5-Chloro-thiophen-2-ylmethyl)-2-((S)-3-methyl-morpholin-4-yl)-8-trifluoromethyl-6,7,8,9-tetrahydro-pyrimido[1,2-a]-pyrimidin-4-one]",pIC50,7.00 to 8.00
"C[C@@H]1COCCN1c1nc2n(c(=O)c1F)CC[C@@H](C(F)(F)F)N2c1ccc(C2CC2)nc1 [Example 43, (S)-9-(6-Cyclopropyl-pyridin-3-yl)-3-fluoro-2-((R)-3-methyl-morpholin-4-yl)-8-trifluoromethyl-6,7,8,9-tetrahydro-pyrimido[1,2-a]-pyrimidin-4-one]",pIC50,> 8.00
"C[C@@H]1COCCN1c1cc(=O)n2c(n1)N(Cc1ccnn1C(F)F)C(C)(C)CC2 [Example 72, 9-(2-Difluoromethyl-2H-pyrazol-3-yl-methyl)-8,8-dimethyl-2-((R)-3-methyl-morpholin-4-yl)-6,7,8,9-tetrahydro-pyrimido[1,2-a]-pyrimidin-4-one]",pIC50,7.00 to 8.00
"CC(C)c1nc(CN2c3nc(N4CCOC[C@H]4C)c(F)c(=O)n3CC[C@H]2C(F)(F)F)no1 [Example 246, (S)-3-Fluoro-9-(5-isopropyl-[1,2,4]oxadiazol-3-yl-methyl)-2-((R)-3-methylmorpholin-4-yl)-8-trifluoromethyl-6,7,8,9-tetrahydro-pyrimido[1,2-a]-pyrimidin-4-one]",pIC50,> 8.00
"C[C@@H]1COCCN1c1nc2n(c(=O)c1F)CC[C@@H](C(F)(F)F)N2c1ccncc1 [Example 55, (S)-3-Fluoro-2-((R)-3-methylmorpholin-4-yl)-9-pyridin-4-yl-8-trifluoromethyl-6,7,8,9-tetrahydro-pyrimido[1,2-a]-pyrimidin-4-one]",pIC50,> 8.00
"C[C@@H]1COCCN1c1cc(=O)n2c(n1)N(Cc1ncco1)CC[C@@H]2C(F)(F)F [Example 13, (R)-2-((R)-3-Methyl-morpholin-4-yl)-9-oxazol-2-ylmethyl-6-trifluoromethyl-6,7,8,9-tetrahydro-pyrimido[1,2-a]-pyrimidin-4-one]",pIC50,7.00 to 8.00
"CC(C)C(O)CN1c2nc(N3CCOC[C@H]3C)cc(=O)n2CC[C@H]1C(F)(F)F (stereo partly drawn) [Example 287, (S)-9-(2-Hydroxy-3-methylbutyl)-2-((R)-3-methylmorpholin-4-yl)-8-trifluoromethyl-6,7,8,9-tetrahydro-pyrimido[1,2-a]-pyrimidin-4-one]",pIC50,> 8.00
"O=c1cc(N2CC3CCC(C2)O3)nc2n1CC[C@@H](C(F)(F)F)N2Cc1ccc(Cl)nc1 [Example 168, (S)-9-(6-Chloro-pyridin-3-ylmethyl)-2-(8-oxa-3-aza-bicyclo[3.2.1]oct-3-yl)-8-trifluoromethyl-6,7,8,9-tetrahydro-pyrimido[1,2-a]-pyrimidin-4-one]",pIC50,7.00 to 8.00
"C[C@H](O)CN1c2nc(N3CCOC[C@H]3C)cc(=O)n2CC[C@H]1C(F)(F)F [Example 205, (S)-9-((S)-2-Hydroxy-propyl)-2-((R)-3-methylmorpholin-4-yl)-8-trifluoromethyl-6,7,8,9-tetrahydro-pyrimido[1,2-a]-pyrimidin-4-one]",pIC50,> 8.00
"CCC(=O)CN1c2nc(N3CCOC[C@H]3C)c(F)c(=O)n2CC[C@H]1C(F)(F)F [Example 22, (S)-3-Fluoro-2-((R)-3-methylmorpholin-4-yl)-9-(2-oxobutyl)-8-trifluoromethyl-6,7,8,9-tetrahydro-pyrimido[1,2-a]-pyrimidin-4-one]",pIC50,> 8.00
"Cc1nc(CN2c3nc(N4CCOC[C@H]4C)cc(=O)n3CC[C@H]2C(F)(F)F)c(C)o1 [Example 93, (S)-9-(2,5-Dimethyl-oxazol-4-ylmethyl)-2-((R)-3-methyl-morpholin-4-yl)-8-trifluoromethyl-6,7,8,9-tetrahydro-pyrimido[1,2-a]-pyrimidin-4-one]",pIC50,> 8.00
